# Measurements published in patent US10512627B2, “Anti-tumor compound and the medical use thereof” (Tianjin Medical University Cancer Institute and Hospital, priority 2014, dated 2019).
# Assays:
# Lewis lung cancer cells = assay: Lewis lung cancer metastasis model in mice (Example 8); type: in vivo, C57BL/6 mouse; conditions: 50, 25, 5 mg/kg intragastric, twice a day, 21 days; P<0.01
# Procedure: 5) A lung cancer model of mouse is established by subcutaneous inoculation of Lewis lung cancer cells in C57BL/6 mouse, because of the characteristic of Lewis lung cancer cell of specific metastasis toward the lung, and the ability of a drug for inhibiting the metastasis of the tumor cells may be determined by counting the number of the metastatic tumors on lung.
# The ability of (S)2-(4′-methyl-3′-nitrobenzoylamino)-3-phenylpropionic acid for inhibiting tumor metastasis in vivo was tested by Lewis lung cancer metastasis model in mice.
# 1) Mice grouping, C57BL/6 of SPF grade, 5 weeks old, 18˜22 g, 8 mice for each group. half male and half female;
# 2) The mother liquid of (S)2-(4′-methyl-3′-nitrobenzoylamino)-3-phenylpropionic acid for dosage form for oral administration was diluted with 1.5% CMC-Na solution to 5 mg/mL, 2.5 mg/mL, 0.5 mg/mL. The dosage for administration in mice was as follows, high dosage group of 50 mg/kg; Medium dosage group of 25 mg/kg; low dosage group of 5 mg/kg. The negative control was 1.5% CMC-Na solution; The positive control was 10 mg/mL of dosage form of 4-methyl-3-nitrobenzoic acid for oral administration, with dosage for administration of 100 mg/kg; […]
# 5) After the completion of the experiment, the mice were sacrificed and the lungs were made into paraffin tissue sections, then stained by HE and the number of tumors were counted under microscope;
# MDA-MB-231 cells = assay: MTT assay, proliferation of MDA-MB-231 (Example 11); type: cell-based; conditions: Homo sapiens, 48 h
# Procedure: The half inhibitory concentration of (S)2-(4′-methyl-3′-nitrobenzoylamino)-3-phenylpropionic acid for MDA-MB-231 cells was tested by MTT assay.
# 2) 5 mg/mL MTT solution was prepared with sterilized PBS, filtered with 0.22 um film, and then diluted with medium to 1 mg/mL. The medium in the 96-well plate was discarded, and 100 μL 1 mg/mL MTT working solution was add, followed by continuous culturing for 5 h.
# 3) MTT working solution was discarded, and 150 μL DMSO was added to each well (note: to away from light), and then the plate was shaken on the horizontal shaker at 170 rpm for 10 min, followed by detecting the absorbance at 490 nm with microplate reader.
structure (smiles),measurement,setting,value
Cc1ccc(C(=O)N[C@@H](Cc2ccccc2)C(=O)O)cc1[N+](=O)[O-] [(S)2-(4′-methyl-3′-nitrobenzoylamino)-3-phenylpropionic acid],number of the tumors on the lungs compared with the negative control,Lewis lung cancer cells,very significant difference
same,IC50,MDA-MB-231 cells,2450 µM
